Data published in PMC7284125, “Identification of annotated bioactive molecules that impair motility of the blood fluke Schistosoma mansoni” (International Journal for Parasitology: Drugs and Drug …, 2020).
Read-outs that look alike come from different tables or passages of the source.

Key:
[1] = test system: S. mansoni schistosomulae; test: Phenotypic primary screen assay on schistosomulae (phenotype; viability by methylene blue dye exclusion); assay type: cell-based, Schistosoma mansoni; details: three-day-old schistosomulae, 10 μM, 24 h; estimated 5 days post compound exposure
Summary of the method: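 Parasites lacking contraction/relaxation cycles and showing dark internal granulations counted as dead. Movement and body shape were compared with DMSO-treated controls under a stereo microscope at 24 h and at five days of exposure. Larvae came from infected snails shed under light for 2 h at 32 °C.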

[2] = test system: S. mansoni schistosomulae; test: as above; assay type: cell-based; details: Schistosoma mansoni; three-day-old schistosomulae, 10 μM, 24 h; calculated 5 days post compound exposure; read-out: Viability (%)
S. mansoni adult worms = test: Motility assay on adult parasites (pixel displacement, relative to DMSO control); assay type: cell-based, Schistosoma mansoni; details: 10 μM; for Fractional motility: secondary screen; for motility phenotype in words: adults, long-term after washout
Summary of the method: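 Unpaired adult worms from mice 6 weeks post-infection kept in OPTI-MEM with 5% dialyzed FBS and exposed to compounds at 1 and 10 μM for 24 h. Motility filmed 1 min at 10 frames/s, quantified by pixel displacement versus DMSO-treated worms; recovery followed up to five days after washout.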

[3] = test system: S. mansoni schistosomulae; test: Motility assay on schistosomulae (pixel displacement, relative to DMSO control); assay type: cell-based, Schistosoma mansoni; details: for activity at 1 µM: Schistosoma mansoni, read-out: Fractional motility
Summary of the method: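 Motility was scored by pixel displacement from 1-min videos (10 frames/s) and compared with DMSO controls. Schistosomulae (200/well, Opti-MEM, 5% dialyzed FBS, no antibiotics) received compound at 1 or 10 μM for 24 h; selected hits were also followed at 1, 3, 6 and 12 h.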

[4] = 120 h, schistosomulae, secondary screen, 24h exposure, read at D5, 1 µM
[5] = schistosomulae, secondary screen, 24h exposure, read at D1, 1 µM
[6] = schistosomulae, secondary screen, 24h exposure, read at D1, 10 µM
[7] = schistosomulae, secondary screen, 24h exposure, read at D5, 10 µM

| SMILES | Phenotype [1] | viability at 10 µM [2] | Fractional motility (S. mansoni adult worms; D1, Female adult worms) | Fractional motility (S. mansoni adult worms; D1, Male adult worms) | Fractional motility (S. mansoni adult worms; D5, Female adult worms) | Fractional motility (S. mansoni adult worms; D5, Male adult worms) | activity at 1 µM [3, 4] | activity at 1 µM [3, 5] | Fractional motility [3, 6] | Fractional motility [3, 7] | other results |
| --- | --- | --- | --- | --- | --- | --- | --- | --- | --- | --- | --- |
| C=CC(=O)N1CCC[C@@H](n2nc(-c3ccc(Oc4ccccc4)cc3)c3c(N)ncnc32)C1 [Ibrutinib] | dark, granulated | 84.5% | 0.33 | 2.36 | 0.36 | 0.94 | 244% | -18% | 0.000588 | -0.29 | – |
| CC(C(O)c1ccc(O)cc1)N1CCC(Cc2ccccc2)CC1 (centres unmarked) [Ifenprodil] | abnormal morphology, granulated | 98.5% | 1.05 | 1.73 | -0.36 | -0.44 | 11% | 81% | 0.47 | -0.10 | – |
| Cc1ccc(C(=O)N(CCCN)[C@@H](c2nc3cc(Cl)ccc3c(=O)n2Cc2ccccc2)C(C)C)cc1 [Ispinesib] | big, granulated | 96% | 3.19 | 2.22 | -0.34 | -0.33 | 125% | 24% | -0.92 | -0.39 | – |
| Cc1cc(Nc2ncc(Cl)c(Nc3ccccc3S(=O)(=O)C(C)C)n2)c(OC(C)C)cc1C1CCNCC1 [LDK378] | dark, granulated | 0% | -0.38 | -0.0381 | -0.63 | -0.31 | 120% | 7% | -0.83 | -0.96 | motility phenotype in words (S. mansoni adult worms): Significant hypomotility |
| CCOC(=O)C1=C(C)NC(C)=C(C(=O)OCC)C1c1ccccc1/C=C/C(=O)OC(C)(C)C [Lacidipine] | granulated | 99% | -0.73 | -0.50 | -0.82 | -0.53 | -11% | 99% | 3.79 | 0.28 | – |
| Cc1cccc(C(C)c2cnc[nH]2)c1C (centres unmarked) [Medetomidine] | elongated | 100% | 1.05 | 2.75 | -0.85 | 0.31 | 10% | -39% | -0.24 | 0.20 | – |
| NCC(=O)Nc1ccc(-n2nc(C(F)(F)F)cc2-c2ccc3c(ccc4ccccc43)c2)cc1 [OSU-03012] | big, granulated | 1% | 0.79 | 1.37 | -0.15 | 0.62 | 26% | 26% | -1.00 | -0.72 | – |
| CCCCCCCCOc1ccccc1C(=O)Nc1ccc(C(=O)OCC[N+](C)(CC)CC)cc1 [Otilonium] | blebbing | 98.5% | 0.10 | 0.16 | -0.67 | -0.65 | 31% | -72% | 0.56 | -0.13 | – |
| CCCN1C[C@H](CSC)C[C@@H]2c3cccc4[nH]cc(c34)C[C@H]21 [Pergolide] | big, round | 99% | 0.25 | 2.14 | -0.82 | -0.30 | -25% | 139% | 18.64 | -0.34 | – |
| COCCCN1CCC(NC(=O)c2cc(Cl)c(N)c3c2OCC3)CC1 [Prucalopride] | elongated | 96% | -0.26 | 0.72 | -0.27 | 0.34 | -11% | 121% | 6.36 | -0.28 | – |
| CC(C)(C)c1cc(NC(=O)Nc2ccc(-c3cn4c(n3)sc3cc(OCCN5CCOCC5)ccc34)cc2)no1 [Quizartinib] | granulated | 54% | 0.64 | 4.64 | -0.59 | -0.09 | -2.37% | – | – | -0.36 | – |
| Cc1c(C(=O)NN2CCCCC2)nn(-c2ccc(Cl)cc2Cl)c1-c1ccc(Cl)cc1 [Rimonabant] | abnormal morphology, granulated | 98.5% | -0.30 | 0.0659 | -0.41 | -0.55 | -21% | 433% | 12.27 | 4.07 | – |
| Cc1ccc(C(=O)N(CCCN)[C@@H](c2oc3cc(Cl)ccc3c(=O)c2Cc2ccccc2)C(C)C)cc1 [SB743921] | big, dark | 70% | 1.14 | 1.48 | -0.87 | 0.0641 | 17% | 74% | 1.32 | -0.89 | – |
| CN1CCC(CNc2ccc3ncc(-c4cccc(OC(F)(F)F)c4)n3n2)CC1 [SGI-1776] | dark | 92.5% | 3.98 | 9.87 | 0.50 | 0.36 | – | – | – | – | activity at 1 µM ([3]; 120 h, Selleckchem customized library secondary screen, 24h, D5, 1 µM): 35%; Fractional motility ([3]; Selleckchem customized library secondary screen, 24h, D1, 10 µM): 121.95; Fractional motility ([3]; Selleckchem customized library secondary screen, 24h, D5, 10 µM): 114.81; stimulated motility relative to control ([3]; schistosomulae, throughout the course of the experiment): > 100 fold |
| O=C(O[C@H]1CN2CCC1CC2)N1CCc2ccccc2[C@@H]1c1ccccc1 [Solifenacin] | elongated, granulated, blebbing | 96.5% | 1.59 | 2.65 | -0.55 | 0.28 | – | – | 1.46 | 0.44 | activity at 1 µM ([3]; 24 h): -30%; activity at 1 µM ([3]; 120 h): -59% |
| COc1ccc2cc1Oc1ccc(cc1)C[C@H]1c3cc(c(OC)cc3CCN1C)Oc1c(OC)c(OC)cc3c1[C@H](C2)N(C)CC3 [Tetrandrine] | big, granulated | 89% | -0.51 | -0.37 | -0.97 | -0.61 | -31% | -9% | -0.39 | -0.87 | motility phenotype in words (S. mansoni adult worms): strongly impaired movement |
| CNCc1ccc(-c2cc(-c3nc(-c4ccc(S(=O)(=O)C(C)C)cc4)cnc3N)on2)cc1 [VE-822] | dark, granulated | 11.5% | -0.46 | -0.30 | -0.67 | -0.66 | -14% | -37% | -0.68 | -0.83 | motility phenotype in words (S. mansoni adult worms): Significant hypomotility; Fractional motility ([3]; schistosomulae, 1h exposure, read at D1, 10 µM): -0.26; Fractional motility ([3]; schistosomulae, 1h exposure, read at D5, 10 µM): -0.63; Fractional motility ([3]; schistosomulae, 3h exposure, read at D1, 10 µM): -0.72; Fractional motility ([3]; schistosomulae, 3h exposure, read at D5, 10 µM): -0.69; Fractional motility ([3]; schistosomulae, 6h exposure, read at D1, 10 µM): 3.57; Fractional motility ([3]; schistosomulae, 6h exposure, read at D5, 10 µM): 0.02; motility in extended assay with reduced incubation times, in words ([3]; three-day old schistosomulae, incubation 1 h, 3 h, 6 h): did not exhibit a significant change before the 24 hr incubation cut-off |
| C=CC(=O)Nc1cccc(Oc2nc(Nc3ccc(N4CCN(C)CC4)cc3OC)ncc2Cl)c1 [WZ4002] | dark, granulated | 7% | 0.66 | 0.64 | -0.61 | 1.33 | 51% | -58% | – | -0.62 | motility phenotype in words (S. mansoni adult worms): hypermotility in male worms and hypomotility in females |
